Converted amounts (≈) assume the structure as drawn.
What was measured:
poliovirus 3 (PV3) = test: microbe, parasite or virus in culture; type: cell-based; details: Enterovirus C, 72 h, read-out: EC50 PV3
[1] = system: coxsackievirus B1 (Cox B1); test: Multicycle cytopathic effect (CPE) reduction assay; type: cell-based; details: Enterovirus B, B1, 72 h, read-out: EC50 CoxB1
[2] = Cytotoxicity (CC50) in multicycle CPE reduction assay, MTS; details: human
in vitro = details: human
HRV 21 = test: Cytopathic effect (CPE) inhibition assay; type: cell-based, human rhinovirus; details: Human rhinovirus sp., 72 h; host cell HeLa, 3 days, MEM/2% FBS, MTT assay; read-out: EC50 HRV 21
HRV 71 = test: Cytopathic effect (CPE) inhibition assay; type: cell-based, human rhinovirus; details: Human rhinovirus sp., 72 h; host cell HeLa, 3 days, MEM/2% FBS, MTT assay; read-out: EC50 HRV 71
[3] = system: coxsackievirus B3 (Cox B3); test: Multicycle cytopathic effect (CPE) reduction assay; type: cell-based; details: Enterovirus B, B3, 72 h, read-out: EC50 CoxB3
HRV 14 = test: Cytopathic effect (CPE) inhibition assay; type: cell-based, human rhinovirus; details: Human rhinovirus sp., HeLa, 72 h, host cell HeLa, 3 days, MEM/2% FBS, MTT assay; read-out: EC50 HRV 14

Structure (SMILES)	EC50 (poliovirus 3 (PV3))	EC50 [1]	CC50 at 3 days [2]	CC50 (in vitro)	EC50 (HRV 21)	EC50 (HRV 71)	EC50 [3]	EC50 (HRV 14)
CCCCCCC(=O)C(=O)NC12C(=O)c3ccccc3C1(O)Oc1cc(C(C)C)ccc12 (centres unmarked) [Example 6, N-(4b-hydroxy-7-isopropyl-10-oxo-9b, 10-dihydro-4bH-indeno[1,2-b]benzofuran-9b-yl)-2-oxo octanamide]	1.23 µg/mL (≈ 2.82 µM)	0.013 µg/mL (≈ 0.0298 µM)	8.57 µg/mL (≈ 19.7 µM)	8.57 µg/mL (≈ 19.7 µM)	> 8.57 µg/mL	> 8.57 µg/mL	0.015 µg/mL (≈ 0.0344 µM)	< 1 µg/mL
CC(C)c1ccc2c(c1)OC1(O)c3ccccc3C(=O)C21NC(=O)C(=O)c1ccco1 (centres unmarked) [Example 7, 2-(furan-2-yl)-N-(4b-hydroxy-7-isopropyl-10-oxo-9b, 10-dihydro-4bH-indeno[1,2-b]benzofuran-9b-yl)-2-oxo acetamide]	< 1 µg/mL	< 0.01 µg/mL	> 10 µg/mL	> 10 µg/mL	> 10 µg/mL	> 10 µg/mL	< 0.01 µg/mL	< 0.1 µg/mL
CC(C)c1ccc2c(c1)OC1(O)c3c(cccc3[N+](=O)[O-])C(=O)C21NC(=O)C(=O)c1c[nH]c2ccccc12 (centres unmarked) [Example 8, N-(4b-hydroxy-7-isopropyl-4-nitro-10-oxo-9b, 10-dihydro-4bH-indeno[1,2-b]benzofuran-9b-yl)-2-(1H-indol-3-yl)-2-oxo acetamide]	9.8 µg/mL (≈ 19.2 µM)	0.56 µg/mL (≈ 1.09 µM)	> 10 µg/mL	> 10 µg/mL	> 10 µg/mL	> 10 µg/mL	1.82 µg/mL (≈ 3.56 µM)	2.31 µg/mL (≈ 4.52 µM)
CC(C)c1ccc2c(c1)OC1(O)c3ccccc3C(=O)C21NC(=O)C(=O)Cc1ccc(O)cc1 (centres unmarked) [Example 9, N-(4b-hydroxy-7-isopropyl-10-oxo-9b, 10-dihydro-4bH-indeno[1,2-b]benzofuran-9b-yl)-3-(4-hydroxyphenyl)-2-oxo propanamide]	< 1 µg/mL	0.013 µg/mL (≈ 0.0284 µM)	9.21 µg/mL (≈ 20.1 µM)	3.76 µg/mL (≈ 8.22 µM)	> 3.76 µg/mL	> 3.76 µg/mL	0.015 µg/mL (≈ 0.0328 µM)	> 3.76 µg/mL
CC(C)c1ccc2c(c1)OC1(O)c3cccc(N)c3C(=O)C21NC(=O)C(=O)c1c[nH]c2ccccc12 (centres unmarked) [Example 10, N-(1-amino-4b-hydroxy-7-isopropyl-10-oxo-9b, 10-dihydro-4bH-indeno[1,2-b]benzofuran-9b-yl)-2-(1H-indo1-3-yl)-2-oxo acetamide]	< 0.1 µg/mL	< 0.01 µg/mL	8.33 µg/mL (≈ 17.3 µM)	4.89 µg/mL (≈ 10.2 µM)	> 4.89 µg/mL	> 4.89 µg/mL	0.014 µg/mL (≈ 0.0291 µM)	< 0.1 µg/mL
CC(C)c1ccc2c(c1)OC1(O)c3cccc(N)c3C(=O)C21NC(=O)C(=O)c1ccccc1 (centres unmarked) [Example 11, N-(1-amino-4b-hydroxy-7-isopropyl-10-oxo-9b, 10-dihydro-4bH-indeno[1,2-b]benzofuran-9b-yl)-2-oxo-2-phenyl acetamide]	< 0.1 µg/mL	< 0.01 µg/mL	8.72 µg/mL (≈ 19.7 µM)	7.82 µg/mL (≈ 17.7 µM)	3.13 µg/mL (≈ 7.07 µM)	> 7.82 µg/mL	< 0.01 µg/mL	< 0.1 µg/mL
Cc1cc2c(cc1C)C1(NC(=O)C(=O)c3ccccc3)C(=O)c3ccccc3C1(O)O2 (centres unmarked) [Example 12, N-(4b-hydroxy-7,8-dimethyl-10-oxo-9b, 10-dihydro-4bH-indeno[1,2-b]benzofuran-9b-yl)-2-oxo-2-phenyl acetamide]	9.8 µg/mL (≈ 23.7 µM)	0.015 µg/mL (≈ 0.0363 µM)	> 10 µg/mL	> 10 µg/mL	> 10 µg/mL	> 10 µg/mL	0.064 µg/mL (≈ 0.155 µM)	2.08 µg/mL (≈ 5.03 µM)
Cc1cc2c(cc1C)C1(NC(=O)C(=O)c3c[nH]c4ccccc34)C(=O)c3ccccc3C1(O)O2 (centres unmarked) [Example 13, N-(4b-hydroxy-7,8-dimethyl-10-oxo-9b, 10-dihydro-9bH-indeno[1,2-b]benzofuran-9b-yl)-(1H-indo1-3-yl)-2-oxo acetamide]	1.98 µg/mL (≈ 4.38 µM)	0.061 µg/mL (≈ 0.135 µM)	8.31 µg/mL (≈ 18.4 µM)	8.41 µg/mL (≈ 18.6 µM)	> 8.41 µg/mL	> 8.41 µg/mL	0.13 µg/mL (≈ 0.287 µM)	1.85 µg/mL (≈ 4.09 µM)
CC(=O)C(=O)NC12C(=O)c3ccccc3C1(O)Oc1cc(C)c(C)cc12 (centres unmarked) [Example 14, N-(4b-hydroxy-7,8-dimethyl-10-oxo-9b, 10-dihydro-4bH-indeno[1,2-b]benzofuran-9b-yl)-2-oxo propanamide]	> 8.57 µg/mL	0.015 µg/mL (≈ 0.0427 µM)	8.57 µg/mL (≈ 24.4 µM)	8.87 µg/mL (≈ 25.2 µM)	> 8.87 µg/mL	> 8.87 µg/mL	0.067 µg/mL (≈ 0.191 µM)	1.82 µg/mL (≈ 5.18 µM)
CC(C)c1ccc2c(c1)OC1(O)c3ccccc3C(=O)C21NC(=O)C(=O)c1ccccc1 (centres unmarked) [Example 15, N-(4b-hydroxy-7-isopropyl-10-oxo-9b, 10-dihydro-4bH-indeno[1,2-b]benzofuran-9b-yl)-2-oxo-2-phenyl acetamide]	< 1 µg/mL	< 0.01 µg/mL	8.8 µg/mL (≈ 20.6 µM)	8.72 µg/mL (≈ 20.4 µM)	> 8.72 µg/mL	> 8.72 µg/mL	< 0.01 µg/mL	< 1 µg/mL
CC(C)c1ccc2c(c1)OC1(O)c3c(cccc3[N+](=O)[O-])C(=O)C21NC(=O)C(=O)c1ccccc1 (centres unmarked) [Example 16, N-(4b-hydroxy-7-isopropyl-4-nitro-10-oxo-9b, 10-dihydro-4bH-indeno[1,2-b]benzofuran-9b-yl)-2-oxo-2-phenyl acetamide]	2.13 µg/mL (≈ 4.51 µM)	0.078 µg/mL (≈ 0.165 µM)	> 10 µg/mL	> 10 µg/mL	> 10 µg/mL	> 10 µg/mL	0.33 µg/mL (≈ 0.698 µM)	1.77 µg/mL (≈ 3.75 µM)
CSCCC(=O)C(=O)NC12C(=O)c3ccccc3C1(O)Oc1cc(C(C)C)ccc12 (centres unmarked) [Example 17, N-(4b-hydroxy-7-isopropyl-10-oxo-9b, 10-dihydro-4bH-indeno[1,2-b]benzofuran-9b-yl)-4-(methylthio)-2-oxo butanamide]	2.61 µg/mL (≈ 6.13 µM)	0.033 µg/mL (≈ 0.0776 µM)	> 10 µg/mL	> 10 µg/mL	> 10 µg/mL	> 10 µg/mL	0.067 µg/mL (≈ 0.157 µM)	6.99 µg/mL (≈ 16.4 µM)
CCCNC(=O)OC12C(=O)c3ccccc3C1(O)Oc1cc(C(C)C)ccc12 (centres unmarked) [Example 18, 4b-hydroxy-7-isopropyl-10-oxo-4b, 10-dihydro-9bH-indeno[1,2-b]benzofuran-9b-yl propyl carbamate]	> 10 µg/mL	< 10 µg/mL	> 10 µg/mL	> 10 µg/mL	> 10 µg/mL	> 10 µg/mL	< 10 µg/mL	> 10 µg/mL
CC(=O)C(=O)NC12C(=O)c3cccc([N+](=O)[O-])c3C1(O)Oc1cc(C(C)C)ccc12 (centres unmarked) [Example 19, N-(4b-hydroxy-7-isopropyl-4-nitro-10-oxo-4b, 10-dihydro-9bH-indeno[1,2-b]benzofuran-9b-yl)-2-oxo propanamide]	< 10 µg/mL	< 1 µg/mL	> 10 µg/mL	> 10 µg/mL	> 10 µg/mL	> 10 µg/mL	< 1 µg/mL	< 10 µg/mL
Cc1cccc(C)c1NC(=O)C(=O)NC12C(=O)c3ccccc3C1(O)Oc1cc(C(C)C)ccc12 (centres unmarked) [Example 20, N1-(2,6-dimethylphenyl)-N2-(4b-hydroxy-7-isopropyl-10-oxo-4b, 10-dihydro-9bH-indeno[1,2-b]benzofuran-9b-yl)oxal amide]	< 10 µg/mL	< 0.1 µg/mL	> 10 µg/mL	> 10 µg/mL	> 10 µg/mL	> 10 µg/mL	< 0.1 µg/mL	< 10 µg/mL
CC(C)c1ccc2c(c1)OC1(O)c3ccccc3C(=O)C21NC(=O)C(=O)N(C)C (centres unmarked) [Example 21, N1-(4b-hydroxy-7-isopropyl-10-oxo-4b, 10-dihydro-9bH-indeno[1,2-b]benzofuran-9b-yl)-N2, N2-dimethyl oxal amide]	< 10 µg/mL	< 0.1 µg/mL	> 10 µg/mL	> 10 µg/mL	> 10 µg/mL	> 10 µg/mL	< 0.1 µg/mL	< 1 µg/mL
